ChEMBL document CHEMBL4699449, “Adenosine A Receptor Antagonists for Cancer Immunotherapy” (J Med Chem, 2020)
Blank lines part the entries; values can stand above or below the molecule they belong to.

Legend:
Adenosine receptor A2a [1] = target: T1, Adenosine receptor A2a (Mus musculus, UniProt Q60613); experiment: Antagonist activity at adenosine 2A receptor in BALB/c mouse T cells assessed as reduction in CGS-21680-induced suppression of IL-2 secretion incubated for 24 hrs by ELISA; type: cell-based, T cell
Adenosine receptor A2a [2] = target: T1, Adenosine receptor A2a; experiment: Antagonist activity at adenosine 2A receptor in BALB/c mouse T cells assessed as reduction in CGS-21680-induced suppression of IFN-gamma secretion incubated for 24 hrs by ELISA; type: cell-based, T cell
[3] = Half life in mouse at 2 mg/kg, iv or 10 mg/kg, po measured up to 24 hrs by LC-MS/MS analysis; type: ADME, organism-based; settings: in vivo
[4] = Cmax in mouse at 1 mg/kg, iv measured up to 24 hrs by LC-MS/MS analysis; type: ADME, organism-based; parameters: route intravenous, dose 1 mg/kg, time <=24; settings: in vivo
[5] = target: Adenosine receptor A2a (Rattus norvegicus) (UniProt P30543); experiment: Antagonist activity at adenosine 2A receptor in rat PC12 cells assessed as reduction in NECA-induced cAMP level incubated for 30 mins by TR-FRET assay; type: functional, cell-based; settings: PC-12, filed as antagonist
Homo sapiens [6] = species: Homo sapiens; experiment: Selectivity ratio of Ki for human adenosine A1 receptor to Ki for human Adenosine 2A receptor
Homo sapiens [7] = species: Homo sapiens; experiment: Selectivity ratio of Ki for human adenosine A3 receptor to Ki for human Adenosine 2A receptor
Homo sapiens [8] = species: Homo sapiens; experiment: Selectivity ratio of Ki for human adenosine 2B receptor expressed in HEK293 cells to Ki for human adenosine 2A receptor expressed in HEK293 cells; type: cell-based
Adenosine receptor A2a [9] = target: T2, Adenosine receptor A2a (Homo sapiens, UniProt P29274); experiment: Inhibition of FRET-labelled CA200645 binding to human adenosine 2A receptor expressed in CHO cells incubated for 2 hr by TR-FRET assay; type: cell-based
Adenosine receptor A1 = target: T3, Adenosine receptor A1 (Homo sapiens, UniProt P30542); experiment: Inhibition of FRET-labelled CA200645 binding to human adenosine A1 receptor expressed in CHO cells incubated for 2 hr by TR-FRET assay; type: cell-based
T3 sequence (P30542 whole entry): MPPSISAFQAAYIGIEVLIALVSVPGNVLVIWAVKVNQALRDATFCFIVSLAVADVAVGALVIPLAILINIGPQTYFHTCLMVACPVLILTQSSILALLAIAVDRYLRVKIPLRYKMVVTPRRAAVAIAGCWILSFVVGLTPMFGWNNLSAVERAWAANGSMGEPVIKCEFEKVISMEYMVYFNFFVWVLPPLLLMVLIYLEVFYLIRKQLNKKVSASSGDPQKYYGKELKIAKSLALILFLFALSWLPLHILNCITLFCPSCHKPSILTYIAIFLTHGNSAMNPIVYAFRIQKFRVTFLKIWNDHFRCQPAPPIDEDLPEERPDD

Adenosine receptor A3 = target: T4, Adenosine receptor A3 (Homo sapiens, UniProt P0DMS8); experiment: Inhibition of FRET-labelled CA200645 binding to human adenosine A3 receptor expressed in CHO cells incubated for 2 hr by TR-FRET assay; type: cell-based
T4 sequence (P0DMS8 whole entry): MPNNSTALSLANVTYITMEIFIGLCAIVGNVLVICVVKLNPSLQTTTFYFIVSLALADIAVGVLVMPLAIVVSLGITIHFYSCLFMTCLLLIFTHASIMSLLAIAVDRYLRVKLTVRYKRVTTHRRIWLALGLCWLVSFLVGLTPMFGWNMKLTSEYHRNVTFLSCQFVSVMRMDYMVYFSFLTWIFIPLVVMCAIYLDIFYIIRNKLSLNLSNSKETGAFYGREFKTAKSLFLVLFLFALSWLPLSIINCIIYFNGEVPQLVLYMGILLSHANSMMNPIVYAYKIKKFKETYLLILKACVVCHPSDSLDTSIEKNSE

Adenosine receptor A2a [10] = target: T2, Adenosine receptor A2a; experiment: Antagonist activity at adenosine 2A receptor in human blood assessed as reversal of NECA/LPS-stimulated TNF-alpha release incubated for 5 hrs; type: tissue-based
Adenosine receptor A2a [11] = target: T2, Adenosine receptor A2a; experiment: Antagonist activity at human adenosine 2A receptor expressed in T-REx-CHO cells preincubated for 1 hr followed by NECA stimulation and measured after 30 mins by Eu-cAMP tracer based TR-FRET assay; type: functional, cell-based; settings: filed as antagonist, time 1.5 hrs
[12] = target: T5, Adenosine receptor A2b (Homo sapiens) (UniProt P29275); experiment: Antagonist activity at human adenosine 2B receptor expressed in CHO-K1 cells preincubated for 1 hr followed by NECA stimulation and measured after 30 mins by Eu-cAMP tracer based TR-FRET assay; type: functional, cell-based; settings: filed as antagonist, time 1.5 hrs
T5 sequence (whole entry): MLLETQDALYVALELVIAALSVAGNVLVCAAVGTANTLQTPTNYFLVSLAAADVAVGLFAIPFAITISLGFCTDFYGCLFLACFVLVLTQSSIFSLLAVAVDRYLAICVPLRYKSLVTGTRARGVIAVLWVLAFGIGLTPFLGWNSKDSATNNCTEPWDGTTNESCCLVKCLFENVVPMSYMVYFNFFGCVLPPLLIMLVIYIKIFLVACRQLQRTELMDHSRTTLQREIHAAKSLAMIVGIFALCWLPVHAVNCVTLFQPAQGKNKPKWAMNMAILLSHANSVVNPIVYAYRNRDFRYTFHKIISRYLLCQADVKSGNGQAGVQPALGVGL

Adenosine receptor A2a [13] = target: T2, Adenosine receptor A2a; experiment: Antagonist activity at adenosine 2A receptor in human PBMC assessed as reversal of NECA/CD3/CD28-stimulated IL-2 release incubated for 24 hrs
Adenosine receptor A2b = target: T6, Adenosine receptor A2b (Homo sapiens, UniProt P29275); experiment: Inhibition of FRET-labelled CA200645 binding to human adenosine 2B receptor expressed in CHO cells incubated for 2 hr by TR-FRET assay; type: cell-based
T6 sequence (P29275 whole entry): T5 sequence (whole entry)

Adenosine receptor A2a [14] = target: T2, Adenosine receptor A2a; experiment: Antagonist activity at adenosine 2A receptor in human whole blood assessed as reduction in phosphorylated CREB level preincubated for 20 mins followed by adenosine receptor agonist NECA addition and measured after 30 mins by flow cytometric analysis; type: functional, tissue-based
[15] = Tmax in human at 75 to 200 mg administered as single ascending dose; type: ADME; settings: in vivo, dose 75-200 mg
[16] = Tmax in human at 75 to 200 mg administered as multiple ascending dose; type: ADME; settings: in vivo, dose 75-200 mg
[17] = Cmax in human at 75 to 200 mg; type: ADME; parameters: dose 75-200
[18] = Half life in human at 75 to 200 mg; type: ADME; settings: dose 75-200 mg

T2 sequence (P29274 whole entry): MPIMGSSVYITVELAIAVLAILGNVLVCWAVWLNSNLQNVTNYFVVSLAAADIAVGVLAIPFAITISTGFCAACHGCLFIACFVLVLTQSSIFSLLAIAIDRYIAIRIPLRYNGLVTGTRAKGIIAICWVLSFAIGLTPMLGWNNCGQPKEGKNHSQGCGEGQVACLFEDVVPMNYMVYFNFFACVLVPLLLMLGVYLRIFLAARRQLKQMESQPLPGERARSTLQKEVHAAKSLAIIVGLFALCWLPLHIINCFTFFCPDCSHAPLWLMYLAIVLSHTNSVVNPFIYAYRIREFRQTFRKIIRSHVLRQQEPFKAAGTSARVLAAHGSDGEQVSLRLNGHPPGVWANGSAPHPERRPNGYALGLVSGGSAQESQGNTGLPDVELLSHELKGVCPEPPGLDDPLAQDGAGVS
T1 sequence (Q60613 whole entry): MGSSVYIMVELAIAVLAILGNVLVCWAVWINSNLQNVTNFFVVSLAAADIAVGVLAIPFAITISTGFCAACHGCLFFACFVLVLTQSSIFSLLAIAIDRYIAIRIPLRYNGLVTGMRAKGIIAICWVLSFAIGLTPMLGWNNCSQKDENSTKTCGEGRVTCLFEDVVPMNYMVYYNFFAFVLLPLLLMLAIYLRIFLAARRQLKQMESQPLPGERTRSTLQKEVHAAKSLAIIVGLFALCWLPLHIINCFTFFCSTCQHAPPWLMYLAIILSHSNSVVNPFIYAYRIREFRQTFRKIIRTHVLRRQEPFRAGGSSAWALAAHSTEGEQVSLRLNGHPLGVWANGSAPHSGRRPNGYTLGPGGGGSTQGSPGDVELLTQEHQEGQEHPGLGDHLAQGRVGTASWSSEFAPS
Chain of Adenosine receptor A2a (Rattus norvegicus) (P30543 whole entry): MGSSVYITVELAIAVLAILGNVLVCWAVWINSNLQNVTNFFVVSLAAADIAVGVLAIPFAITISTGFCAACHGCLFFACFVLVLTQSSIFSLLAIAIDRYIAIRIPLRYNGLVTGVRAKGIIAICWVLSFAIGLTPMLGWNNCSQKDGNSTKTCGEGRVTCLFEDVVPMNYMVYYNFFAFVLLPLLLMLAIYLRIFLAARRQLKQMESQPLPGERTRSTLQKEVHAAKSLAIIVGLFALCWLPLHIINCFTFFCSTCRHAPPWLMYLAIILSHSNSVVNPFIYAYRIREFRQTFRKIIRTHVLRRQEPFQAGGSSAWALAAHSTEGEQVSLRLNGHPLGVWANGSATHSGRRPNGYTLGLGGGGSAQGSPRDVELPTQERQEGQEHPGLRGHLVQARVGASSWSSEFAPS

- IC50 (Adenosine receptor A2a [1]): 40 nM
- IC50 (Adenosine receptor A2a [2]): 40 nM
SMILES: COc1ccc(-c2cnn(C)c2)c2nc(NC(=O)c3ccc(Cn4ccnc4)cc3)[nH]c12

- half-life [3]: 52 min
- Cmax [4]: 1320 ng/mL
SMILES: COc1ccc(-c2cnn(C)c2)c2nc(NC(=O)N3CCC(C)(O)CC3)[nH]c12

- Kb (Adenosine receptor A2a [11]): < 100 nM
- Kb [12]: < 100 nM
SMILES: COc1cccc2c(-c3cn(Cc4cccc(C(C)(C)O)n4)nn3)nc(N)nc12

- IC50 (Adenosine receptor A2a [13]): 77 nM
- IC50 (Adenosine receptor A2a [10]): > 200 nM
SMILES: Cc1cccnc1CNC(=O)c1cnc(-c2ccco2)nc1N

- Ki (Adenosine receptor A2a [9]): 0.078 nM
- Ki (Adenosine receptor A2b): 5.4 nM
- Ratio Ki (Homo sapiens [6]): 230
- Ratio Ki (Homo sapiens [7]): 2490
- IC50 (Adenosine receptor A2a [14]): 17 nM
- IC50 (Adenosine receptor A2a [10]): > 200 nM
SMILES: COc1nc(-c2ncco2)nc(N)c1C(=O)NCc1c(Cl)cccc1Cl

The next lines start with the molecule.

SMILES: Nc1nc(-c2ccccc2)c(-c2ccc(O)c(Cl)c2)n2ccnc12
- Kb [5]: < 10000 nM

SMILES: COCCOc1ccc(N2CCN(CCn3ncc4c3nc(N)n3nc(-c5ccco5)nc43)CC2)cc1
- Ratio Ki (Homo sapiens [6]): 1000
- Ratio Ki (Homo sapiens [7]): 1000
- Ratio Ki (Homo sapiens [8]): 1000

SMILES: Cc1cccnc1CNC(=O)c1c(N)nc(-c2ccco2)nc1OCCF
- Ki (Adenosine receptor A2a [9]): 1.3 nM
- Ki (Adenosine receptor A1): 260 nM
- Ki (Adenosine receptor A3): 62 nM
- IC50 (Adenosine receptor A2a [10]): > 200 nM

SMILES: COc1ccc(N2CCOCC2)c2sc(NC(=O)N3CCC(C)(O)CC3)nc12 [TOZADENANT]
- half-life [3]: 11 min
- Cmax [4]: 337 ng/mL

SMILES: COc1ncc(N2CCOCC2)c2sc(NC(=O)N3CCC(C)(O)CC3)nc12
- half-life [3]: 10.3 min
- Cmax [4]: 449 ng/mL

SMILES: COc1ncc(N2CCOCC2)c2nc(NC(=O)N3CCC(C)(O)CC3)[nH]c12
- half-life [3]: 50.3 min
- Cmax [4]: 2650 ng/mL

SMILES: Cc1c(C#N)cccc1-c1cc(-c2cn(Cc3cccc(C(C)(C)O)n3)nn2)nc(N)n1 [ETRUMADENANT]
- Tmax [15]: 120 min
- Tmax [16]: 90 min
- Cmax [17]: 1170 ng/mL
- half-life [18]: 1200 min

SMILES: COCc1cccc(Cn2cc(-c3cc(-c4ccco4)nc(N)n3)nn2)n1
- Kb (Adenosine receptor A2a [11]): < 100 nM
